Experimental data: US6979470B2 (priority 2001, dated 2005)
pIC50: −log10 of the molar value.

Experiments:
COX-2 [1] = details: reported, specificity for COX-2 over COX-1; cited from earlier work
COX-2 [2] = target: T1, COX-2 (Mus musculus, UniProt Q05769); test: cell-based; type: cell-based
T1 construct: LPS, which was used to induce the expression of COX-2 in the RAW 264.7 cells; host or cells: RAW 264.7
T1 sequence (Q05769 18-604): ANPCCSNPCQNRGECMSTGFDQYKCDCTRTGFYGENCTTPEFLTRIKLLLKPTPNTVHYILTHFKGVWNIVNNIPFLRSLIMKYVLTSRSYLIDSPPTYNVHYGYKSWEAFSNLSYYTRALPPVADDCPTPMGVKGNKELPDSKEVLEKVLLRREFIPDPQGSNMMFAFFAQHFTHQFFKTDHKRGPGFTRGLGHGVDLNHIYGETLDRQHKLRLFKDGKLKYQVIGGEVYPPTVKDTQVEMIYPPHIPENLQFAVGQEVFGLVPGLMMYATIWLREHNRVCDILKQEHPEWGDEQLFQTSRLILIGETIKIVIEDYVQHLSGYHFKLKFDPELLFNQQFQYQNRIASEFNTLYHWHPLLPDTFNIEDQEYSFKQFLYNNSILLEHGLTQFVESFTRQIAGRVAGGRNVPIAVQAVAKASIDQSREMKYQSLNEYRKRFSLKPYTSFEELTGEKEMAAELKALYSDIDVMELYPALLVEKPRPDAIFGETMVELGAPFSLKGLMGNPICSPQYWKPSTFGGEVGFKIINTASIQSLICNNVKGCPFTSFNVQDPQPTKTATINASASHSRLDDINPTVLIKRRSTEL
Protocol: On day one of the experiment, the log phase 264.7 cells were plated at 8×10^4 cells per well in 0.2 mL growth medium per well in a 96-well tissue culture plate. After 6 to 8 hours post plating, 100 μL of growth medium from each well was removed and replaced with 100 μL fresh medium. […] It was mixed until dissolved and stored at 4° C. Immediately before use, it was thawed at room temperature or in a 37° C. water bath. A new solution was prepared every 60 days.
On day two of the experiment, the test materials were prepared as 1000× stock in DMSO. For example, if the final concentration of the test material was to be 10 μg/mL, a 10 mg/mL stock was prepared by dissolving 10 mg of the test material in 1 mL of DMSO. Fresh test materials were prepared on day 2 of the experiment. In 1.7 mL microfuge tubes, 1 mL DMEM without FBS was added to obtain test concentrations of 0.05, 0.10, 0.5, and 1.0 μg/mL. 2 μL of the 1000×DMSO stock of the test material was added to the 1 mL of medium without FBS. The tube contained the final concentration of the test material was concentrated 2-fold. The tube was placed in incubator for 10 minutes to equilibrate.
One-hundred mL of medium was removed from each well of the cell plates prepared on day one. One-hundred mL of equilibrated 2× final concentration the test compounds were added to cells and incubated for 90 minutes. […]

Row | Compound | COX-2 specificity (COX-2 [1]) | SPECIFICIY COX-1/COX-2 (COX-2 [2]; COX-1 IC50 (enzyme) / COX-2 IC50 (RAW 264.7)) | pIC50 (COX-2 [2]; second compound alone, PGE2 production by COX-2, RAW 264.7 cells, 24 h LPS)
1 | CC(=O)Oc1ccccc1C(=O)O [aspirin] | 0.6 |  | 
2 | C=C1CC[C@@H]2[C@](C)(CO)[C@H](O)CC[C@@]2(C)[C@@H]1C/C=C1/C(=O)OC[C@H]1O [Andrographolide] |  | 5.2 | 3.12
